Results published in patent US20090137625A1, “Novel Enantiomers and Their Use as Monoamine Neurotransmitter Re-Uptake Inhibitors” (priority 2005, published 2009).
Where a name gives a salt, the structure may show the parent alone. Read-outs that look alike come from different tables or passages of the source.

Experiments:
[1] = target: T1, DA-uptake (reuptake of dopamine in synaptosomes) (Rattus norvegicus, UniProt P23977); experiment: Inhibition of dopamine (DA) reuptake in synaptosomes; type: biochemical
T1 construct: in synaptosomes as described in WO 97/16451; from tissue
T1 sequence (P23977 whole entry): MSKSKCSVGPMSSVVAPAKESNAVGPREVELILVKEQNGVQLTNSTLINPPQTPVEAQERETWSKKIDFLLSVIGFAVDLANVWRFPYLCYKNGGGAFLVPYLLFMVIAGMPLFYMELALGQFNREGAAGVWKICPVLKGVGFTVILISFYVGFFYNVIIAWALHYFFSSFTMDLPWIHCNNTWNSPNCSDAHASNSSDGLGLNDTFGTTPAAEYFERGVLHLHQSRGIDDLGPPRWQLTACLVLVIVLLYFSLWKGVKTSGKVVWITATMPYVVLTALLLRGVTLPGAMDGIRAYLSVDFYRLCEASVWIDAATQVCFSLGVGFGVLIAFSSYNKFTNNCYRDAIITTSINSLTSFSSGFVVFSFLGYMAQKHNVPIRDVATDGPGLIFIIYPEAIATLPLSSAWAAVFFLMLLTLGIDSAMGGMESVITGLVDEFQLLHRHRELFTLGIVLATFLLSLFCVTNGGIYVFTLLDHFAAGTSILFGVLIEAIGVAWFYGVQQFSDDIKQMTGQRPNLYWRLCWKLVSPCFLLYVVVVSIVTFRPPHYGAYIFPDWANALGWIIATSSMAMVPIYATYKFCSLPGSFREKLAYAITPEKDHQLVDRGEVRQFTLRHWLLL

[2] = target: T2, 5-HT-uptake (reuptake of serotonine in synaptosomes) (Rattus norvegicus, UniProt P31652); experiment: Inhibition of serotonine (5-HT) reuptake in synaptosomes; type: biochemical
T2 construct: in synaptosomes as described in WO 97/16451; from tissue
T2 sequence (P31652 whole entry): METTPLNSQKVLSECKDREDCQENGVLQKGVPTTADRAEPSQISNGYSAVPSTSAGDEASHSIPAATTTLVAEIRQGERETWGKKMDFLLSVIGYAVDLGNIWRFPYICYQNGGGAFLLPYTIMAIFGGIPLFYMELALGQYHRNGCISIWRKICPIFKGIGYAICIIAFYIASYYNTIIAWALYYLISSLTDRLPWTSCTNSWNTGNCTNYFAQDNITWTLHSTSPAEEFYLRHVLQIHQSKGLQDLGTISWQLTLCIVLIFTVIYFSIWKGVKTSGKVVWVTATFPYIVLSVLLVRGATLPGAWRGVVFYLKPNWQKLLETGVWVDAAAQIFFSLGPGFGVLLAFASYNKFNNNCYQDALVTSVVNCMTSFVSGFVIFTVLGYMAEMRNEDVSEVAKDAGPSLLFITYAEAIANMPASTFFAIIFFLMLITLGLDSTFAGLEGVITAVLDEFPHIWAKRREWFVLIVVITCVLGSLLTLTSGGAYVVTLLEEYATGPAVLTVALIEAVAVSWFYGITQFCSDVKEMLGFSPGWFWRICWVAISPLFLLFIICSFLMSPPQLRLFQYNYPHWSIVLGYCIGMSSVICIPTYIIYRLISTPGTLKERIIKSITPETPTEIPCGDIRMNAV

[3] = target: T3, NA-uptake (reuptake of noradrenaline in synaptosomes) (Rattus norvegicus, UniProt Q9WTR4); experiment: Inhibition of noradrenaline (NA) reuptake in synaptosomes; type: biochemical
T3 construct: in synaptosomes as described in WO 97/16451; from tissue
T3 sequence (Q9WTR4 1-597): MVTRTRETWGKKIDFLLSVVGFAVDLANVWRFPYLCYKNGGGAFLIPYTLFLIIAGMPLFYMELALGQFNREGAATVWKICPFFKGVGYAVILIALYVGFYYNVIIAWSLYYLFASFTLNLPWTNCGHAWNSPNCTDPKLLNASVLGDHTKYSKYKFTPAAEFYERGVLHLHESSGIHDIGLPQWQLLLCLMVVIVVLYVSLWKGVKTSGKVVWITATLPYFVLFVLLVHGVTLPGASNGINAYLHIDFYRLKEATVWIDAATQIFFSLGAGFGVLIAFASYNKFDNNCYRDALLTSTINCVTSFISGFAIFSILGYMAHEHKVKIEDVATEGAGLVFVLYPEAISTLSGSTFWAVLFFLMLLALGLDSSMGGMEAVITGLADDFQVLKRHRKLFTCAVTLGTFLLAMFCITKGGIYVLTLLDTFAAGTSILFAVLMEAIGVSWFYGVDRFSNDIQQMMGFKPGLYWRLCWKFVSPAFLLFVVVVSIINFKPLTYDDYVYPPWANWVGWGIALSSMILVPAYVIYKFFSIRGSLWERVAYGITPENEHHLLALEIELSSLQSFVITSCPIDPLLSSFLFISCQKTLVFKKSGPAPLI

[4] = synaptosomes, 3H-DA, read-out: DA-uptake IC50
[5] = synaptosomes, 3H-5-HT, read-out: 5-HT-uptake IC50
[6] = synaptosomes, 3H-NA, read-out: NA-uptake IC50

Compound	melting point	IC50 [1, 4]	IC50 [2, 5]	IC50 [3, 6]	further results
C1=C(c2ccc3ccccc3c2)CC2CCC1N2 (single isomer, unassigned; (+)) (as salt: tartaric acid salt) [1st compound of method D, (+)-3-Naphthalen-2-yl-8-aza-bicyclo[3.2.1]oct-2-ene]	183 to 189 °C				
CN1C2C=C(c3ccc4ccccc4c3)CC1CC2 (single isomer, unassigned; (-)) [1st compound of method E, (−)-8-Methyl-3-(naphthalen-2-yl)-8-aza-bicyclo[3.2.1]oct-2-ene]		34 nM	0.23 nM	18 nM	
C1=C(c2ccc3ccccc3c2)CC2CCC1N2 (single isomer, unassigned; (+)) [1st compound of method D, (+)-3-Naphthalen-2-yl-8-aza-bicyclo[3.2.1]oct-2-ene]					IC50 [1]: 58 nM; IC50 [2]: 0.34 nM; IC50 [3]: 13 nM
Clc1ccc(C2=CC3CCC(C2)N3)cc1 (single isomer, unassigned; (+)) [1st compound of method A, (+)-3-(4-Chlorophenyl)-8-H-8-aza-bicyclo[3.2.1]oct-2-ene]		260 nM	10 nM	28 nM	
CN1C2C=C(c3ccc4ccccc4c3)CC1CC2 (single isomer, unassigned; (-)) (as salt: hydrochloric acid salt) [1st compound of method E, (−)-8-Methyl-3-(naphthalen-2-yl)-8-aza-bicyclo[3.2.1]oct-2-ene]	265 °C				
